Legend:
[1] = test system: TGFβ-induced Smad phosphorylation and lymphocyte responses to TGFβ; test: TGFβ signaling in T and B cells; assay type: cell-based, murine; conditions: low dose HF; 10 μM SB-431542
Method: FIG. 10. […] FIG. 10A is a set of FACS analyses of CD4^+ CD25^− T cells activated in Th1 or Th2 polarizing conditions, either in the presence or absence of TGFβ. DMSO, 10 nM HF, 10 nM MAZ1310, or 10 μM SB-431542 added as indicated at the time of activation. Intracellular cytokine staining was performed on expanded T cells on day 5.
FIG. 10D depicts western blot analyses of purified CD4^+ CD25^− T cells treated with DMSO, 40 nM MAZ1310, titrating concentrations of HF (2.5-40 nM) or 10 μM SB-431542 for 30 minutes in complete medium supplemented with 0.1% fetal calf serum. T cells were then activated in the presence or absence of 3 ng/ml TGFβ. Whole cell extracts were prepared after 1 hour of stimulation and western blot analyses were performed using the indicated antibodies.
Th17 differentiation is synergistically regulated by TGFβ and the pro-inflammatory cytokines IL-6 and IL-21. […] Since STAT3 is the major transducer of IL-6 and IL-21 signaling, the kinetics of STAT3 phosphorylation in HF-treated T cells were examined.
Whole cell lysates were generated from T cells activated for the indicated times. For STAT3 and Smad2/3 western blots cells were harvested, washed in PBS and lysed in 50 mM Tris, pH 7.4, 0.1% SDS, 1% Triton-X100, 140 mM NaCl, 1 mM EDTA, 1 mM EGTA supplemented with protease inhibitors tablets (Roche, Germany), 1 mM NaF and 1 mM Na3VO4. […]

[2] = test system: Differentiation of primary naïve T-cells into Th17 cells; test: Inhibition of Th17 differentiation of primary naïve T-cells by halofuginone analogs; assay type: cell-based, murine; set-up: key: “+++” vs. “++” vs. “+” in general denotes ˜4-fold differences in potency; “+++” vs. “++” vs. “+” in general denotes ˜4-fold differences in potency; “+++” vs. “++” vs. “+” in general denotes ˜4-fold differences in potency; “−” denotes no activity at any dose tested, up to 1000× the effective dose of halofuginone; conditions: T-cell receptor stimulation+IL-6+TGFb
Method: Naïve T-cells were stimulated to differentiate in the presence or absence of 10 nM halofuginone, with 1 mM of the indicated amino acids added to the medium, and stained for Th17 differentiation on day 4. Naïve murine T cells were activated in the presence or absence of TGFβ plus IL-6 as indicated, expanded in for 4 days and restimulated with PMA and ionomycin for intracellular cytokine staining. […] Bars indicate percentage of cells differentiation as Th17 as indicated by IL17 expression.
The effect of different halofuginone and analogs thereof on differentiation of naïve T-cells was assayed as described in legend for FIG. 4 above. Differentiation of primary naïve T-cells into Th17 cells following T-cell receptor stimulation+IL-6+TGFb. “+++” vs. “++” vs. “+” in general denotes ˜4-fold differences in potency. “−” denotes no activity at any dose tested, up to 1000× the effective dose of halofuginone.

[3] = test system: eIF2α phosphorylation and ATF4 protein levels in CD4+ CD25− T cells; test: Amino acid response (AAR) pathway activation in T cells, western blot; assay type: cell-based, mice; conditions: 10 nM; 4 hours; T cells from wild type or GCN2−/− mice
Method: CD4+ CD25− T cells purified from wild type of GCN2−/− mice were activated through TCR for 4 hours in the presence of halofuginone (10 nM) or 9 (MAZ1310, 10 nM). Whole cell lysates were analyzed by SDS PAGE/Western blot and antibodies indicated.
Naïve T-cells were treated to stimulate the T-cell receptor (TCR) in the presence or absence of 10 nM halofuginone in the presence of 1 mM added amino acid, and then assayed for eIF2alpha activity phosphorylation by SDS PAGE/Western blot.
HF induced detectable eIF2α phosphorylation at 2.5 nM, and this effect plateaued at 5-10 nM HF (FIG. 7D). […] AAR activation was a general consequence of HF treatment; HF induced eIF2α phosphorylation, not only in T cells activated in Th17-priming conditions, but also in resting naïve T cells and T cells activated in ThN, Th1, Th2, and iTreg polarizing conditions (FIG. 7F). […] Thus, the rapid activation of the AAR pathway by HF could underlie both its selective inhibition of Th17 differentiation and its effects on fibroblasts (Pines and Nagler, Gen. Pharmacol. 30:445, 1998).
To delineate the stress response pathway activated by HF, the effects of amino acid starvation with those of tunicamycin (an inducer of ER stress) or HF treatment during T cell activation were compared.
Whole cell lysates were generated from T cells activated for the indicated times. For STAT3 and Smad2/3 western blots cells were harvested, washed in PBS and lysed in 50 mM Tris, pH 7.4, 0.1% SDS, 1% Triton-X100, 140 mM NaCl, 1 mM EDTA, 1 mM EGTA supplemented with protease inhibitors tablets (Roche, Germany), 1 mM NaF and 1 mM Na3VO4. For eIF2α and ATF4 western blots, cells were harvested as above and lysed in 50 mM Tris, pH 7.4, 2% SDS, 20% glycerol and 2 mM EDTA supplemented with protease and phosphatase inhibitors as above. All lysates were cleared via centrifugation and 15-30 μg of protein was resolved by SDS-PAGE. Protein was transferred to nitrocellulose membranes, blocked and blotted using specific antibodies. Antibodies used for western blot analysis were anti-phospho-Smad2, anti-STAT3 (pY705), anti-STAT3, anti-eIF2α^pS51, anti-eIF2α (all from Cell Signaling Technology, Danvers, Mass.). Anti-ATF4/CREB2 and anti-β-actin were purchased from Santa Cruz Biotechnology (Santa Cruz, Calif.). HRP-conjugated secondary antibodies were all purchased from Sigma, with the exception of HRP-conjugated anti-armenian hamster antibody (Jackson Immunoresearch, West Grove, Pa.).

[4] = test system: translation of luciferase RNA in rabbit reticulocyte lysate; test: Translation of a luciferase RNA reporter in rabbit reticulocyte lysate; assay type: biochemical; set-up: key to Translational inhibition: “+++” vs. “++” vs. “+” in general denotes ˜4-fold differences in potency; “+++” vs. “++” vs. “+” in general denotes ˜4-fold differences in potency; “+++” vs. “++” vs. “+” in general denotes ˜4-fold differences in potency; “−” denotes no activity at any dose tested, up to 1000× the effective dose of halofuginone; conditions: luciferase RNA reporter
Method: To distinguish these possibilities, the effect of halofuginone on protein translation was examined in an in vitro system (rabbit reticulocyte lysate) in which amino acids are already present at levels adequate to support protein synthesis. […] Distinct tRNA synthetases catalyze the charging of individual tRNA species with their cognate amino acid. To determine which tRNA synthetase is inhibited by halofuginone, several amino acid mixtures were added to the in vitro translation system to determine which, if any, could reverse the inhibition of translation by halofuginone (FIG. 3). […] To examine whether proline could specifically rescue the effect of halofuginone in intact cells, the ability of each amino acid to reverse the effect of halofuginone on eIF2alpha phosphorylation in T-cells or to prevent halofuginone inhibition of Th17 differentiation was tested (FIG. 4). […] Inhibition of EPRS with compounds of the current invention can inhibit Th17 differentiation.
Translation in vitro was performed using rabbit reticulocyte lysates and luciferase mRNA as template. Translation was measured as arbitrary units of luciferase activity using a luminometer based luminescence assay. Log scale presentation of background-subtracted data is shown.
Inhibition of translation of luciferase RNA by halofuginone and analogs thereof was measured as described in FIG. 3 above. Results are shown of translation of a luciferase RNA reporter in a rabbit reticulocyte lysate. “+++” vs. “++” vs. “+” in general denotes ˜4-fold differences in potency. “−” denotes no activity at any dose tested, up to 1000× the effective dose of halofuginone.

[5] = test system: Human primary dermal fibroblasts; test: Inhibition of cell spreading in a fibroblast model; assay type: cell-based; set-up: key: “+++” vs. “++” vs. “+” in general denotes ˜4-fold differences in potency; “+++” vs. “++” vs. “+” in general denotes ˜4-fold differences in potency; “+++” vs. “++” vs. “+” in general denotes ˜4-fold differences in potency; “−” denotes no activity at any dose tested, up to 1000× the effective dose of halofuginone; conditions: spreading of cells assessed by light microscopy 28 hours after treatment
Method: The ability of halofuginone and analogs thereof to inhibit the spreading of freshly plated primary dermal fibroblasts was examined. Human primary dermal fibroblasts were replated and halofuginone added immediately after replating; spreading of cells was assessed by light microscopy 28 hours after treatment with compound. “+++” vs. “++” vs. “+” in general denotes ˜4-fold differences in potency. “−” denotes no activity at any dose tested, up to 1000× the effective dose of halofuginone.

Row | Compound | effect on TGFβ-induced Smad phosphorylation and other lymphocyte responses to TGFβ [1] | Inhibition of Th17 differentiation [2] | phosphorylation of Ser51 of eIF2alpha, GCN2 dependence [3] | Translational inhibition [4] | Fibroblast inhibition [5]
1 | NC(=O)c1ccc(-c2nc(-c3ccc4c(c3)OCO4)c(-c3ccccn3)[nH]2)cc1 [SB-431542] | abrogated all responses to TGFβ |  |  |  | 
2 | CC(C)(C)OC(=O)N1CCCC(O)C1CC(=O)Cn1cnc2cc(Br)c(Cl)cc2c1=O (centres unmarked) [Compound 9, (2S/R,3R/S)-tert-butyl 2-(3-(7-bromo-6-chloro-4-oxoquinazolin-3(4H)-yl)-2-oxopropyl)-3-hydroxypiperidine-1-carboxylate] |  | − | inactive | − | −
